These results are taken from patent US20140329868A1, “METHODS FOR TREATING HYPERTENSION” (TAKEDA PHARMACEUTICALS U.S.A., INC., priority 2005, published 2014).

The assay has as its system oxonic acid (OA)-induced hyperuricemic model in Sprague-Dawley rats. As to the kind of experiment: Example 4: micropuncture glomerular hemodynamics and mean arterial pressure under anesthesia in normal and OA-dosed rats. Type of assay: in vivo. As to conditions: for mean arterial blood pressure (effect in words): end of study, FIG. 3. The procedure:
Materials and Methods. To produce hyperuricemia, rats received OA (Sigma, St Louis Mo., USA) 750 mg/kg body weight daily by gastric gavage. To investigate the treatment effect of febuxostat (also referred to herein as “Fx”), the drug was administered in drinking water at 50 mg/L (approximately 5-6 mg/kg/day) four weeks after OA dosing while the respective controls received 5.84 mg/L of NaCl in drinking water (to maintain a salt concentration equivalent to the Febuxostat-containing water). The following four groups (n=10-11) were included in the study: Group 1, normal control rats which received no treatment for eight weeks; Group 2, Normal+Febuxostat rats which received no treatment for four weeks and then were treated with febuxostat for four weeks from Weeks 5 to 8; Group 3, OA rats which received OA for eight weeks; and Group 4, OA+Febuxostat rats which received OA for eight weeks and febuxostat for four weeks from Weeks 5 to 8. Body weight, food and water intakes were measured daily. Systolic blood pressure, obtained in conscious rats by a tail cuff sphygmomanometer, and plasma uric acid were measured in all animals at baseline and at the end of four and eight weeks. A renal micropuncture procedure along with systemic arterial blood pressure monitoring under pentobarbital anesthesia were performed at the end of eight weeks followed by morphologic evaluation of the renal preglomerular microvasculature.
Micropuncture Procedure to Assess Glomerular Hemodynamics. Animals were anesthetized with pentobarbital sodium (30 mg/kg, i.p.) and placed on a thermoregulated table to maintain body temperature at 37° C. Trachea, jugular veins, femoral arteries and the left ureter were catheterized with polyethylene tubing (PE-240, PE-50 and PE-10). The left kidney was exposed, placed in a Lucite holder, sealed with agar and covered with Ringer's solution. Mean arterial pressure (hereinafter “MAP”) was monitored using a pressure transducer (Model p23 db; Gould, San Juan, PR) connected to the catheter in the femoral artery and recorded on a polygraph (Grass Instruments, Quincy, Mass., USA). Blood samples were taken periodically and replaced with blood from a donor rat. Rats were maintained under euvolemic conditions by infusion of 10 mL/kg of body weight of isotonic rat plasma during surgery, followed by an infusion of 25% polyfructosan at 2.2 mL/h (Mutest, Fresenius Kabi, Linz, Austria). After 60 min, five to seven samples of proximal tubular fluid were obtained to determine flow rate and polyfructosan concentrations. Intratubular pressure under free-flow (hereinafter “FF”) and stop-flow (hereinafter “SFP”) conditions and peritubular capillary pressure (hereinafter “Pc”) were measured in other proximal tubules with a servo-null device (Servo Nulling Pressure System; Instrumentation for Physiology and Medicine, San Diego, Calif., USA). Glomerular colloid osmotic pressure was estimated from protein concentrations obtained from blood of the femoral artery (hereinafter “Ca”) and surface efferent arterioles (hereinafter “Ce”). Polyfructosan was measured in plasma and urine samples by the anthrone-based technique of Davidson and Sackner (See, Davidson W D et al., J Lab Clin Med 62:351-356 (1963)). Plasma samples were deproteinated first with trichloroacetic acid. After centrifugation, the supernatant was used for polyfructosan measurement. Polyfructosan concentrations in plasma and urine samples were assessed by addition of anthrone reagent followed by incubation at 45° C. for 50 min and reading in a spectrophotometer set at wavelength of 620 nm. Concentrations were calculated by interpolating the absorbance values using a standard curve (0.01-0.05 mg/mL). Total glomerular filtration rate (hereinafter “GFR”) was calculated using the following formula: GFR=(U×V)/P, where U is the polyfructosan concentration in urine, V is urine flow rate, and P is the polyfructosan concentration in plasma. […]

The mark [1] stands for this setting: Normal + FX rats, end of eight weeks.
[2] abbreviates: OA + Fx rats, end of eight weeks.

On to `Cc1nc(-c2ccc(OCC(C)C)c(C#N)c2)sc1C(=O)O` [febuxostat, 2-[3-cyano-4-(2-methylpropoxy)phenyl]-4-methylthiazole-5-carboxylic acid], for which, under setting [1], the “FF (free flow tubular pressure)” value was determined as 13.4 ± 0.8 mmHg, the “GFR (glomerular filtration rate)” value is 0.9 ± 0.1 mL/min, the “Kf (ultrafiltration coefficient)” value was 0.046 ± 0.004 nL/s · mmHg and the “PGC (glomerular capillary pressure)” value turned out to be 46.3 ± 1.4 mmHg. Also, under setting [1], the “Pc (peritubular capillary pressure)” value is listed as 12.5 ± 0.8 mmHg, the “QA (glomerular plasma flow)” value came to 135.0 ± 11.2 nL/min, the “SFP (stop flow pressure)” value is reported as 30.7 ± 0.8 mmHg and the “SNGFR (single nephron GFR)” value worked out at 34.6 ± 2.3 nL/min. For the same compound, under “Normal + FX rats, end of eight weeks, under anesthesia”, the “MAP (mean arterial pressure)” value turned out to be 123 ± 3 mmHg. Further, under setting [2], the “FF (free flow tubular pressure)” value is recorded as 12.9 ± 0.5 mmHg, the “GFR (glomerular filtration rate)” value amounted to 1.0 ± 0.1 mL/min, the “Kf (ultrafiltration coefficient)” value was found to be 0.070 ± 0.011 nL/s · mmHg and the “PGC (glomerular capillary pressure)” value worked out at 46.5 ± 1.0 mmHg. Under setting [2], the “Pc (peritubular capillary pressure)” value is on record as 13.2 ± 0.7 mmHg, the “QA (glomerular plasma flow)” value is listed as 183.6 ± 21.4 nL/min, the “SFP (stop flow pressure)” value is given as 29.7 ± 1.0 mmHg and the “SNGFR (single nephron GFR)” value was 45.7 ± 5.2 nL/min. In addition, the “ultrafiltration coefficient (Kf) compared to the other groups (in words)” value under setting [2] was “numerically, but insignificantly higher”. For the same compound, for the setting “OA + Fx rats, end of eight weeks, under anesthesia, listed as Fx”, the “MAP (mean arterial pressure)” value was found to be 112 ± 5 mmHg. Further, where the note is “OA-treated rats, end of eight weeks”, the “elevation in glomerular capillary pressure (PGC) and stop flow pressure (effect in words)” value is reported as “prevented these changes”. In addition, the “mean arterial blood pressure (effect in words)” value (OA-treated rats, intra-arterial cannulation under anesthesia) was “reduced to the normal range”. Further, the “glomerular hemodynamics (effect in words)” value (normal rats, end of eight weeks) is on record as “did not alter glomerular hemodynamics”. In addition, the “mean arterial blood pressure (effect in words)” value (normal rats, under anesthesia) was “did not alter MAP”.
